Results on one molecule are retold here after patent publication US10239871B2, “Compounds and methods for regulating integrins” (ADHAERE PHARMACEUTICALS, INC., priority 2012, dated 2019).

SMILES strings stand for the structures. “Also recorded” adds a separate entry of the source.

The test system of one data set is Syk. Nature of the data set: Western blot analysis of Syk phosphorylation in leukocytes. The data set is classed as cell-based. Conditions: leukocytes incubated 0-60 minutes. An excerpt:
TLR4-mediated signaling requires participation of the adaptor protein MyD88 (43) and MyD88−/− mice are protected from kidney damage following IRI. TLR4 activation leads to the binding and stabilization of adaptor protein MyD88, which recruits downstream kinases to initiate Nf-kB-mediated pro-inflammatory signaling. Subsequently, TLR4 signaling induces a negative feedback loop by endogenous activation of CD11b/CD18, which activates Syk to phosphorylate MyD88, tagging it for ubiquitin-mediated destruction. […] A pilot experiment was carried out to validate this hypothesis by determining the levels of MyD88 in human monocytic THP-1 cells. […] This supports the statements that leukadherins mediated priming of integrins for activation negatively regulates intracellular signaling, including the inflammatory NF-kB signaling.

The subject of data set [1] is allograft transplantation. The experiment in a line: Allograft transplantation model (kidney). The format is in vivo. Conditions: co-treatment with cyclosporine.
The subject of data set [2] is Human Umbilical Vein Endothelial Cells. The experiment in a line: TUNEL assay, HUVEC co-cultured with LA1-activated neutrophils. The format is cell-based. Conditions: LA1-mediated adhesion of neutrophils. An excerpt: In support of this argument, neither we nor others studying knock-in animals that express constitutively active mutants of integrins LFA-1 [54, 55] and […]4[…]7 [56] have observed any signs of vascular injury in any experimental model. FIGS. 22A-22E show an absence of apoptosis in co-cultures of LA-1 activated leukocytes and HUVEC cells.

The test system of data set [3] is RAW 264.7 macrophage cells. Nature of the data set: Wound healing assay (macrophage migration). The data set is classed as cell-based, murine. The following applies: LA1 15 μM, M18/2 20 μg/mL, 48 hours.
Method: Murine RAW 264.7 macrophage cells were grown in DMEM 10% FBS medium in T75 flasks to 70% confluence. The cells were detached by trypsin treatment for 10 minutes at 37° C. and evenly reseeded in 24 well plates and allowed to attain >70% confluency. A scratch was introduced horizontally across the well using 200 µL tip applying even force throughout the etching and holding the tip at approximately an 80 degree angle. The wells were subsequently washed and fresh medium containing various treatment groups was introduced. The wound was imaged using 10× objective. The cells were allowed to grow for 48 hours and the wound was reimaged at the same field after 48 hours. The average extent of wound closure was evaluated by measuring the width of the wound. The area healed was analyzed using ImageJ software and is expressed as percentage healing after 48 hours.
For FIG. 4B, RAW 264.7 cells were plated in 24-well tissue culture plates (2×10^6 cells/well) and allowed to adhere in complete media for 12 hours. […] Images of the cells in culture were obtained immediately prior to (0 hours) and after the completion of the experiment (48 hours) using an inverted phase contrast microscope attached to a video camera.
Representative data shown here are from a triplicate well experiment from one of at least two to three independent experiments. **p<0.001, ***p<0.0001.
The test system of data set [4] is balloon-induced arterial injury. Nature of the data set: Balloon-induced arterial injury in rats (neointima). The format is in vivo, rat. The procedure: All surgeries were performed under anesthesia by isoflurane (Baxter). Activating mAb ED7 (4 mg/kg/d), the isotype control mIgG1 (4 mg/kg/d, Rockland) and the leukadherin LA1 (1 mg/kg/d) were each administered intra peritoneally (i.p.) in saline daily until the end of the experiment. Balloon injury in the right iliac artery was inflicted with a 2F Fogarty catheter (Baxter) adapted to a custom angiographic kit (Boston Scientific, Scimed). An aortotomy in the abdominal aorta was made to insert a catheter to the level of the right iliac artery. The balloon was inflated to 1.5 to 1.6 atmospheres and retracted to the arteriotomy site three times. The aortic excision was repaired with eight sutures. The abdominal cavity was closed by planes with an interrupted suture pattern. Arterial specimens were collected 21 days after injury and fixed in 4% formalin-PBS (Sigma-Aldrich) for 5 minutes and analyzed by histology and immunostaining. Neointima were measured in H&E stained slides using ImagePro.
Despite significant technological advances in PCI, restenosis (re-narrowing) secondary to neointimal hyperplasia remains a major complication limiting the success of coronary interventions in 5-25% of patients. The recruitment of inflammatory macrophages and other leukocytes precedes neointimal hyperplasia. The denudation of endothelial cell lining at the site of mechanical vascular injury during a PCI procedure leads to the deposition of fibrin and platelets, where selective binding between the platelet cell surface receptor GP lb[…] and leukocytic CD11b/CD18 leads to the migration and recruitment of these inflammatory cells. Indeed, in experimental models, it has been shown that the genetic ablation of CD11b (CD11b−/− animals) or its blockade (using biological antagonists) can reduce neointima formation after angioplasty or stent implantation. […] Here, this experimental arterial balloon injury model was used to examine the relative efficacy of the two types of agonists, in a head-to-head comparison, on inflammatory responses in vivo. First, the dose-dependence of LA1 in this model system was determined. LA1 was administered at two different doses (0.05 or 1 mg/kg/d, intraperitoneal (i.p.)), or the vehicle (DMSO), in a saline solution to SD male rats 30 minutes prior to injury and continued daily injections for the next three weeks and subsequently measured the extent of vascular injury via tissue histology (FIGS. 14A-14D). Data shown are mean±SEM. *p<0.05, **p<0.001.
Next, in order to examine the relative efficacy of LA1 and ED7, LA1 (1 mg/kg/d) or ED7 (4 mg/kg/d) were administered to SD male rats 30 minutes prior to balloon injury and continued daily for the next 21 days. An isotype control antibody (mIgG1, 4 mg/kg/d) was administered to the control group of animals. […] Data shown are mean±SEM. *p<0.05, ***p<0.0001, ns=not significant.

The test system of data set [5] is CD11b+ macrophages in injured arteries. Nature of the data set: Flow cytometric quantitation of arterial macrophages in injured arteries. The format is in vivo, rat. Conditions: 7 days after balloon injury; LA1 1 mg/kg/d; ED7 1 and 3.3 mg/kg/d. The method, then: Agonist treated and control balloon-injured Fisher 344 rats were sacrificed 7 days post surgery at the onset of inflammation. The injured and non-injured iliac arteries were microdissected and digested with Collagenase/Elastase mix (Worthington Biochemical, NY) in DMEM containing 2% FBS for 2 hours at 37° C. The resulting single cell suspension was washed with cold PBS containing 2% FBS and filtered through […] sieve. Cells were re-suspended cold PBS containing 2% FBS at a concentration of 10^6 cells per 100 μl and stained with biotinylated anti-rat CD11b antibody (clone WT.5, BD Biosciences) for 1 hour at 4° C. […] Cells were washed twice with the assay buffer and analyzed using FACS II Canto cytometer and the data were analyzed using FlowJo (Tree Star Inc.) software. […]
Next, to determine whether either type of agonist (chemical LA1 and biologic activating antibody) has a therapeutic advantage over the other, a head-to-head comparison was performed using this in vivo model. […] Next, the arteries were analyzed to quantify the number of infiltrated macrophages in the presence of agonists LA1 or ED7 and compared it to vehicle treated animals. The arteries were harvested from animals 7 days after balloon injury and single cell suspensions were analyzed by flow cytometry (using anti-rat CD11b antibody WT.5) to quantitate CD11b+ macrophages in each sample. […]

The mark [6] stands for this setting: LA1 1 mg/kg/d, ED7 4 mg/kg/d, 21 days.

Regarding `O=C(O)c1ccc(-c2ccc(/C=C3\SC(=S)N(Cc4ccccc4)C3=O)o2)cc1` [LA1], in the data set on Syk, the “Syk phosphorylation (pSyk)” value is given as “induction of Syk phosphorylation; also recorded: induces Syk phosphorylation”. Further, the “engraftment of the donated kidney” value in data set [1] was “much better engraftment”. The “HUVEC apoptosis (TUNEL)” value in data set [2] was “does not increase HUVEC apoptosis”. The “migration of LPS- or PMA-stimulated macrophages” value in data set [3] was “significantly, and to a similar extent, reduced the migration”. The “migration of macrophages into the wound area, agonist alone” value in data set [3] (vs DMSO) is on record as “no significant increase in the migration of macrophages”. Besides, the “neointimal hyperplasia vs vehicle” value in data set [4] (0.05 or 1 mg/kg/d i.p., three weeks, SD male rats) was “significantly less neointimal hyperplasia”. For the same molecule, the “dose dependence of reduction in mechanical vascular injury” value in data set [4] (0.05 vs 1 mg/kg/d i.p.) is “dose-dependent reduction”. The “neointima formation compared to the ED7 group” value in data set [4] (LA1 1 mg/kg/d vs ED7 4 mg/kg/d, 21 days) was “significantly less neointima formation”. Further, in data set [4] (setting [6]), the “neointimal hyperplasia (NIH) / mechanical vascular injury, significance vs control group” value is “significant reduction in neointimal hyperplasia” and the “neointimal thickening vs control mAb IgG1-treated group” value was “reduced neointimal thickening”. In data set [5], the “CD11b+ macrophages in injured arteries vs vehicle” value is on record as “significantly less CD11b/CD18 macrophages”.
